Tests used:
[1] = Acute toxicity in Sprague-Dawley rat assessed as effect on heart damage at 500 to 2000 mg/kg, IG measured on day 15; format: organism-based; conditions: in vivo, po, 360 h, dose 500-2000 mg/kg, time 15 day
[2] = Acute toxicity in Sprague-Dawley rat assessed as effect on kidney damage at 500 to 2000 mg/kg, IG measured on day 15; format: organism-based; conditions: in vivo, po, 360 h, dose 500-2000 mg/kg, time 15 day
HEK-293T = experiment: Cytotoxicity against HEK293T cells assessed as reduction in cell viability upto 100 uM MTT assay; format: toxicity, cell-based; conditions: human
[3] = Bioavailability in Sprague-Dawley rat at 10 mg/kg, IG measured upto 24 hrs by LC-MS/MS analysis; format: ADME, organism-based; conditions: in vivo, po
[4] = Apparent […] clearance in Sprague-Dawley rat at 5 mg/kg, iv measured upto 24 hrs by LC-MS/MS analysis; format: ADME, organism-based; conditions: in vivo
[5] = Cmax in Sprague-Dawley rat at 5 mg/kg, IG measured upto 24 hrs by LC-MS/MS analysis; format: ADME, organism-based; parameters: time < 24 hrs, dose 5 mg/kg, route ig; conditions: in vivo, po
[6] = test system: Human immunodeficiency virus 1; experiment: Antiviral activity against HIV1 IIIB infected in human MT4 cells assessed as inhibition of viral replication incubated for 3 to 7 days by MTT analysis; format: functional, organism-based; conditions: Human immunodeficiency virus 1, IIIB
[7] = AUC (0 to t) in male Sprague-Dawley rat at 30 mg/kg, IG measured at 0.5 hrs LC-MS/MS analysis; format: ADME, organism-based; parameters: dose 30 mg/kg, time 0.5 hrs, route ig; conditions: in vivo, po
[8] = Tmax in Sprague-Dawley rat at 5 mg/kg, IG measured upto 24 hrs by LC-MS/MS analysis; format: ADME, organism-based; conditions: in vivo, po
[9] = Acute toxicity in Sprague-Dawley rat assessed as effect on lung damage at 500 to 2000 mg/kg, IG measured on day 15; format: organism-based; conditions: in vivo, po, 360 h, dose 500-2000 mg/kg, time 15 day
[10] = test system: Human immunodeficiency virus 1; experiment: Antiviral activity against HIV1 TC-1 infected in human PBMC assessed as inhibition of viral replication by measuring reduction in p24 antigen level incubated for 3 to 7 days by ELISA analysis; format: functional, organism-based; conditions: Human immunodeficiency virus 1, TC-1, PBMC
[11] = test system: Human immunodeficiency virus 1; experiment: Antiviral activity against HIV1 NL4-3 infected in human C8166 cells assessed as inhibition of viral replication by measuring reduction in p24 antigen level incubated for 3 to 7 days by ELISA analysis; format: functional, organism-based; conditions: Human immunodeficiency virus 1, NL4-3, C8166
[12] = test system: Human immunodeficiency virus 1; experiment: Antiviral activity against HIV1 WAN infected in human PBMC assessed as inhibition of viral replication by measuring reduction in p24 antigen level incubated for 3 to 7 days by ELISA analysis; format: functional, organism-based; conditions: Human immunodeficiency virus 1, WAN
[13] = Half life in Sprague-Dawley rat at 5 mg/kg, IG measured upto 24 hrs by LC-MS/MS analysis; format: ADME, organism-based; conditions: in vivo, po
[14] = AUC (0 to t) in Sprague-Dawley rat at 10 mg/kg, IG measured upto 24 hrs by LC-MS/MS analysis; format: ADME, organism-based; parameters: dose 10 mg/kg, time < 24 hrs, route ig; conditions: in vivo, po
[15] = Tmax in Sprague-Dawley rat at 2.5 mg/kg, IG measured upto 24 hrs by LC-MS/MS analysis; format: ADME, organism-based; conditions: in vivo, po
[16] = Acute toxicity in Sprague-Dawley rat assessed as effect on brain damage at 500 to 2000 mg/kg, IG measured on day 15; format: organism-based; conditions: in vivo, po, 360 h, dose 500-2000 mg/kg, time 15 day
[17] = AUC (0 to t) in female Sprague-Dawley rat at 10 mg/kg, IG measured at 0.5 hrs LC-MS/MS analysis; format: ADME, organism-based; parameters: time 0.5 hrs, dose 10 mg/kg, route ig; conditions: in vivo, po
[18] = test system: Human immunodeficiency virus 1; experiment: Antiviral activity against HIV1 IIIB infected in human C8166 cells assessed as inhibition of viral replication by measuring reduction in p24 antigen level incubated for 3 to 7 days by ELISA analysis; format: functional, organism-based; conditions: Human immunodeficiency virus 1, IIIB
[19] = AUC (0 to t) in female Sprague-Dawley rat at 100 mg/kg, IG measured at 24 hrs LC-MS/MS analysis; format: ADME, organism-based; parameters: time 24 hrs, dose 100 mg/kg, route ig; conditions: in vivo, po
[20] = AUC (0 to t) in female Sprague-Dawley rat at 30 mg/kg, IG measured at 0.5 hrs LC-MS/MS analysis; format: ADME, organism-based; parameters: time 0.5 hrs, dose 30 mg/kg, route ig; conditions: in vivo, po
[21] = Apparent oral clearance in Sprague-Dawley rat at 2.5 mg/kg, IG measured upto 24 hrs by LC-MS/MS analysis; format: ADME, organism-based; conditions: in vivo
[22] = AUC (0 to t) in female Sprague-Dawley rat at 10 mg/kg, IG measured at 24 hrs LC-MS/MS analysis; format: ADME, organism-based; parameters: time 24 hrs, dose 10 mg/kg, route ig; conditions: in vivo, po
[23] = Cmax in Sprague-Dawley rat at 2.5 mg/kg, IG measured upto 24 hrs by LC-MS/MS analysis; format: ADME, organism-based; parameters: time < 24 hrs, dose 2.5 mg/kg, route ig; conditions: in vivo, po
[24] = AUC (0 to t) in Sprague-Dawley rat at 5 mg/kg, iv measured upto 24 hrs by LC-MS/MS analysis; format: ADME, organism-based; parameters: dose 5 mg/kg, time < 24 hrs, route iv; conditions: in vivo
[25] = test system: Human immunodeficiency virus 1; experiment: Antiviral activity against HIV1 4755-5 infected in human C8166 cells assessed as inhibition of viral replication by measuring reduction in p24 antigen level incubated for 3 to 7 days by ELISA analysis; format: functional, organism-based; conditions: Human immunodeficiency virus 1, 4755-5, C8166
[26] = AUC (0 to t) in male Sprague-Dawley rat at 30 mg/kg, IG measured at 24 hrs LC-MS/MS analysis; format: ADME, organism-based; parameters: time 24 hrs, dose 30 mg/kg, route ig; conditions: in vivo, po
[27] = Acute toxicity in Sprague-Dawley rat assessed as effect on spleen damage at 500 to 2000 mg/kg, IG measured on day 15; format: organism-based; conditions: in vivo, po, 360 h, dose 500-2000 mg/kg, time 15 day
[28] = AUC (0 to t) in male Sprague-Dawley rat at 10 mg/kg, IG measured at 24 hrs LC-MS/MS analysis; format: ADME, organism-based; parameters: dose 10 mg/kg, time 24 hrs, route ig; conditions: in vivo, po
[29] = Toxicity in po dosed Sprague-Dawley rat assessed as NOAEL administered once daily for 4 weeks and measured after 24 hrs post last dose; format: organism-based; conditions: in vivo
[30] = test system: Human immunodeficiency virus 1; experiment: Antiviral activity against HIV1 KIZ001 infected in human PBMC assessed as inhibition of viral replication by measuring reduction in p24 antigen level incubated for 3 to 7 days by ELISA analysis; format: functional, organism-based; conditions: Human immunodeficiency virus 1, KIZ001, PBMC

With `C#C[C@]1(CO)O[C@@H](n2cnc3c(N)nc(F)nc32)[C@@H](F)[C@@H]1O` the Activity [1] was “Non-Toxic”, the Activity [2] was “Non-Toxic” and the Activity (HEK-293T) was “Non-Toxic”. The bioavailability [3] was 76.3%, the CL/F [4] was 16.4 mL/min/kg and the Cmax [5] was 1230 ng/mL. It also gave an EC50 [6] of 1.22 nM, an AUC(0-t) at 0.5 h [7] of 28200 ng·h/mL and a Tmax [8] of 33.6 min. The Activity [9] was “Non-Toxic”, the EC50 [10] was 6.3 nM and the EC50 [11] was 1.18 nM. It also gave an EC50 [12] of 14.4 nM, a half-life [13] of 192 min and an AUC(0-t) at 24 h [14] of 8660 ng·h/mL. For the same molecule, the Tmax [15] was 37.8 min, the Activity [16] was “Non-Toxic” and the AUC(0-t) at 0.5 h [17] was 7020 ng·h/mL. For the same molecule, the EC50 [18] was 6.5 nM, the AUC(0-t) at 24 h [19] was 82500 ng·h/mL and the AUC(0-t) at 0.5 h [20] was 22800 ng·h/mL. For the same molecule, the CL/F [21] was 24.8 mL/min/kg, the AUC(0-t) at 24 h [22] was 6800 ng·h/mL and the Cmax [23] was 630 ng/mL. The AUC(0-t) at 24 h [24] was 5290 ng·h/mL, the EC50 [25] was 32.4 nM and the AUC(0-t) at 24 h [26] was 27100 ng·h/mL. For the same molecule, the Activity [27] was “Non-Toxic”, the AUC(0-t) at 24 h [28] was 8150 ng·h/mL and the NOAEL at 696 h [29] was 30 mg/kg. The EC50 [30] was 1.87 nM.

Source: ChEMBL document CHEMBL5360641, “4'-Ethynyl-2'-deoxy-2'-β-fluoro-2-fluoroadenosine: A Highly Potent and Orally Available Clinical Candidate for the Treatment of HIV-1 Infection” (J Med Chem, 2023)
